# Experimental data reported in patent publication US20220152117A1, “METHODS OF PROMOTING CELLULAR MATURATION WITH AMPK ACTIVATORS” (UNIVERSITY OF WASHINGTON, priority 2019, published 2022).
# “And” between values parts separate entries of the source, which are not always exact repeats. Identical values can stand only once. “Also recorded” adds a separate entry of the source.
# Legend:
# Format in all cases: cell-based, human
# hiPSC-derived neurons = assay: Quantitative RT-PCR gene expression in neurons
# hPSC-CMs [1] = assay: Mitochondrial oxidation of palmitate, Seahorse XF96 extracellular flux palmitate-albumin assay; conditions: 1 mM AICAR for 2 weeks
# Experimental: The Seahorse XF96 extracellular flux Analyzer™ was used to assess the fatty acid oxidation capacity of the hPSC-CMs. XF96 plates were pre-treated with fibronectin at a concentration of 1 μg/cm^2. At around 20 days after induction of differentiation, the cardiomyocytes were seeded onto the XF96 plates at a density of 30,000 cells per well (2,500/mm^2). The cells were treated with 1 mM AICAR for two weeks before the palmitate-albumin assay. An hour prior to performing this assay, culture medium was exchanged for basal media (unbuffered DMEM, Sigma D5030, supplemented with 2 mM glutamine, 1 mM pyruvate, 25 mM glucose, and 400 μM carnitine). Palmitate-albumin complexes were made following the Seahorse Bioscience protocol. Substrates were injected during the measurements to achieve two spike concentrations of palmitate-albumin at 200 μM each. The oxygen consumption rates (OCR values) were further normalized to the number of cells present in each well, quantified by staining with Hoechst 33342 (Sigma-Aldrich) as measured using fluorescence at 355 nm excitation and 460 nm emission. The highest OCR values induced by palmitate-albumin were used for statistics. Due to variations in the absolute magnitude of OCR measurements in different experiments, the relative AICAR treated/untreated control levels were used to compare and summarize independent biological replicates (N=7).
# hPSC-CMs [2] = assay: Electron microscopy and point counting of relative mitochondrial volume; conditions: after AICAR treatment; control 0.068±0.006
# Experimental: Adherent cells in tissue culture dishes were fixed for transmission electron microscopy in half-strength Karnovsky's fixative (2.0% paraformaldehyde, 2.5% glutaraldehyde, 0.1M phosphate buffer, pH 7.4) overnight. The cells were then washed in 0.1M phosphate buffer two times (5 minutes each) and post-fixed in 1.0% OsO4 in 0.1M phosphate buffer. Cells were rinsed twice (5 minutes each) then dehydrated in […], 70% and 90% alcohol, 2 minutes each, then in 100% alcohol twice (5 minutes each). Cells were embedded in Polybed 812 Resin™ (Ted Pella®, Redding, Calif.) by first infiltrating with a mixture of 50% alcohol/50% polybed for 1 hour and then pure polybed for 3 hours. Beem capsules filled with fresh resin were inverted over areas of cells. Polymerization procedure was performed for 24 hours at 65° C. Removal of beem capsules was achieved by placing plates in boiling water then gently peeling the capsule containing the polymerized resin and cells away from the plastic plate. Sections for light and transmission electron microscopy were cut using a Reichert Ultracut E Microtome™. […] The relative mitochondrial volume was calculated by point counting, in which 20 horizontal and 20 perpendicular lines were drawn in the images and the crosspoints that overlapped with mitochondria was counted and then divided by the total points.
# [3] = system: cardiomyocytes from ARVD/C hiPSCs; assay: TUNEL cell viability assay, cardiomyocytes from mutant PKP2 (ARVD/C) hiPSCs; conditions: two weeks treatment, TUNEL with α-actinin co-stain
# Experimental: The normal and mutant Plakophilin 2 (PKP2) cells were generated as described previously^37. Induced pluripotent cells were cultured with E8 medium in Matrigel® coated plates. Cardiomyocytes were obtained using a protocol based on Lian et al^38 that involves Wnt agonist CHIR 99021 in the early stages of differentiation followed by the Wnt antagonist IWP2 under monolayer condition. Before Day 7, cells were cultured in RPMI plus B27 without insulin while on Day 7 and afterwards, EB media (KO-DMEM with 2% FBS, 1 mM NEAAs, 1× GlutaMAX, 1 mM mercaptoethanol, and penicillin/streptomycin) was used. At 30 days of differentiation, beating EBs were treated with three factors (3F) (50 μg/ml insulin, 0.5 μM dexamethasone, and 0.25 mM IBMX) or five factors (5F) (3F plus PPAR-γ agonists 5 μM rosiglitazone and 200 μM indomethacin) media as described earlier or treated with 1 mM AICAR or AICAR plus rosiglitazone and indomethacin for two weeks. TUNEL staining with In Situ Cell Death Detection Kit TMR Red™ (Roche®) was used to assess cell viability after conducting different treatment. TUNEL staining was co-stained with anti-α-actinin antibody so that cardiomyocyte-specific apoptosis could be assessed.
# [4] = normalized to HPRT then to control cells
compound,measurement,setting,value
"NC(=O)c1ncn([C@@H]2O[C@H](CO)[C@@H](O)[C@H]2O)c1N [AICAR, 5-amino-4-imidazolecarboxamide riboside-1-β-D-ribofuranoside]",NeuN mRNA in neurons,hiPSC-derived neurons; compared to control neurons,significant increase
same,PPARα expression in neurons,hiPSC-derived neurons; [4],increased
same,TFAM expression in neurons,hiPSC-derived neurons; [4],increased
same,PDK4 expression in neurons,hiPSC-derived neurons; two weeks of treatment with AICAR every third day,increase
same,increase in oxygen consumption rate (OCR) upon palmitate-albumin introduction,hPSC-CMs [1],2.32±0.12 fold and ~2.3 fold
same,mitochondrial volume fraction,hPSC-CMs [2],0.119±0.013
same,apoptosis / cell death in cardiomyocytes from ARVD/C (mutant PKP2) hiPSCs,[3],induced significant apoptosis; also recorded: induced significant cell death
